Literature values as cited in US20230149389A1, “METHODS OF REDUCING MORTALITY IN SUBJECTS SUFFERING FROM AN UNDERLYING DISEASE OR CONDITION BY ADMINISTRATION OF METHYLNALTREXONE” (Bausch Health Ireland Limited, priority 2020, published 2023).

What was measured:
[1] = cited from earlier work
murine model of sepsis = details: mouse, in vivo; cited from earlier work
[2] = test system: human dermal endothelial and pulmonary cells; details: at clinically relevant levels; cited from earlier work

Row | Structure (SMILES) | incidence rate for MI ([1]; placebo 0%) [%] | incidence rate for cardiovascular events ([1]; placebo 1.12%) [%] | mortality in murine model of sepsis (murine model of sepsis) | angiogenic activity relative to vascular endothelial growth factor [2] [%]
1 | C[C@H]1CN(C[C@H](Cc2ccccc2)C(=O)NCC(=O)O)CC[C@@]1(C)c1cccc(O)c1 [alvimopan] | 1.30 | 2.60 | – | –
2 | CN1CC[C@]23c4c5ccc(O)c4O[C@H]2[C@@H](O)C=C[C@H]3[C@H]1C5 [morphine] | – | – | increased mortality | 70
